Test results taken from paper PMC4865845, “A human genome-wide loss-of-function screen identifies effective chikungunya antiviral drugs” (Nature Communications, 2016).

What follows are substances tested on CHIKV.
Type: cell-based, chikungunya virus
For “Hs_U2AF2_3 (TAAGACGAATTTGCTCATTAA; chemistry not given here)”, the Score_si1 was 2.74. For “Hs_UBE2C_3 (GCCCTTGTATATTAAATAAAT; chemistry not given here) [reference compound]”, the Score_si4 was -0.41. “Hs_UBE2C_4 (CAGGACCATTCTGCTCTCCAT; chemistry not given here) [reference compound]” gave a Score_si3 of -0.75. “Hs_UBE2C_8 (GAGCCCTTGTATATTAAATAA; chemistry not given here) [reference compound]” showed a Score_si1 of -1.05. “Hs_UBE2C_9 (AGCCCTTGTATATTAAATAAA; chemistry not given here) [reference compound]” gave a Score_si2 of -0.83. In the case of “Hs_UIP1_3 (CTCGAGGGTCTGTATATCACA; chemistry not given here) [reference compound]”, the Score_si4 is reported as 0.1. “Hs_ULK2_6 (CAGCCTGAGATACGTGCCTTA; chemistry not given here) [reference compound]” showed a Score_si1 of -2.62. In the case of “Hs_UMPS_1 (CACCGCATTGATACTATAATA; chemistry not given here)”, the Score_si4 is reported as 1.35. “Hs_UMPS_2 (CAGGAGAAACCTGTTTAATCA; chemistry not given here)” showed a Score_si1 of 3.14. Work on “Hs_UMPS_4 (AAGCTTCTCAGGCTTATGCAA; chemistry not given here)” yielded a Score_si3 of 1.59. In the case of “Hs_UQCRFS1_1 (CAGCATGATCTAGATCGAGTA; chemistry not given here)”, the Score_si1 is reported as 3.18. For “Hs_UQCRFS1_2 (CAAACATTAATGTGAAATAAA; chemistry not given here)”, the Score_si4 was 0.3. Work on “Hs_WDR40A_1 (CAGCATCAATGTGATTAGTAA; chemistry not given here) [reference compound]” yielded a Score_si1 of -2.68. “Hs_WDR40A_2 (AACACTGATAATAGGAAGTAA; chemistry not given here) [reference compound]” was tested, and the Score_si4 was -0.22. Work on “Hs_WIG1_1 (CAGCATTTAGAGAGCAAGCAA; chemistry not given here)” yielded a Score_si1 of 2.55. Work on “Hs_WIG1_2 (CAGGCTCATTATCAGGGTAAA; chemistry not given here)” yielded a Score_si4 of -0.33. “Hs_XRN1_1 (CAGGTCGTAAATATCAAATAA; chemistry not given here)” gave a Score_si3 of 1.08. “Hs_XRN1_2 (AAGGAAATAGATAAACTGTAA; chemistry not given here)” showed a Score_si1 of 1.94. In the case of “Hs_YEATS4_1 (AAGGGTGTTACTATCGTTAAA; chemistry not given here)”, the Score_si1 is reported as 1.23. Work on “Hs_YEATS4_2 (TTGGTAGTAAGCTAAACTGAA; chemistry not given here)” yielded a Score_si2 of 1.07. Work on “Hs_YEATS4_3 (AAAGGGTGTTACTATCGTTAA; chemistry not given here)” yielded a Score_si3 of 0.92. Substance “Hs_ZA20D1_1 (AAGGAGGTTCTCAGTCAATAA; chemistry not given here)” has a Score_si2 of 1.25. “Hs_ZA20D1_2 (CAGGATGACATCGTTCAAGAA; chemistry not given here)” gave a Score_si3 of 1.15. “Hs_ZBTB24_1 (CTCCAGGAAATTAAATATTTA; chemistry not given here)” was tested, and the Score_si2 was 1.74. “Hs_ZBTB24_2 (CAGCATGTGTCTGTAATTGTA; chemistry not given here)” showed a Score_si1 of 2.57. With “Hs_ZNF261_1 (AAGGTCTTATCTGAAAGGTAA; chemistry not given here) [reference compound]” the Score_si1 was -2.35. With “Hs_ZZZ3_1 (CAGCCTGATGGGAACACTAAA; chemistry not given here) [reference compound]” the Score_si1 was -2.9. Work on “Hs_ZZZ3_2 (TAGGAATTTACCTGAATATAA; chemistry not given here) [reference compound]” yielded a Score_si2 of -2.58. “n268452 (AGCTGGCCATCGAAAGGTA; chemistry not given here)” showed a Score_si1 of 0.81. Substance “s29 (CCCATAATATCATTGAGAA; chemistry not given here)” has a Score_si2 of 1.87. “s79 (sense CCAGCTATCTATAACCTTA; chemistry not given here)” showed a Score_si4 of 2.02. Substance “s81 (sense GGATGATTTAGAATTGTCA; chemistry not given here)” has a Score_si3 of 2.08. In the case of “s322 (GGTTGTCCTTGAGTAATAA; chemistry not given here)”, the Score_si1 is reported as 1.71. “s617 (sense GGTCTTGGAGGGAATCCTA; chemistry not given here)” was tested, and the Score_si2 was 1.33. Work on “s619 (sense CTGCAGTTGTGGTTGGATA; chemistry not given here)” yielded a Score_si1 of 1.92. In the case of “s915 (CATCCAGTCTGTATACGAA; chemistry not given here)”, the Score_si1 is reported as 1.9. “s916 (GCATCGCAAACTTCACCAA; chemistry not given here)” gave a Score_si3 of 1.06. Substance “s922 (CATTAACATTGTTCGCAAA; chemistry not given here)” has a Score_si4 of 1.81. Substance “s923 (AATTCAAGCTATGAAGATA; chemistry not given here)” has a Score_si2 of 1.99. For “s992 (GTGTTTTTCCGTAAGCATA; chemistry not given here) [reference compound]”, the Score_si3 was -0.52. “s993 (GGTGCGTCATATGCAGGAA; chemistry not given here) [reference compound]” showed a Score_si2 of -0.55. For “s994 (GAGGAAGTCCTAAATCACA; chemistry not given here) [reference compound]”, the Score_si4 was 1.87. Work on “s1522 (sense GGATCAAGCTGCCCATCTA; chemistry not given here)” yielded a Score_si2 of 1.17. In the case of “s1523 (sense CCGGCATCTTTGCTACCTA; chemistry not given here)”, the Score_si4 is reported as 0.87. Substance “s1698 (CGAACTACACCTTCAGCTA; chemistry not given here) [reference compound]” has a Score_si3 of -0.99. For “s1907 (sense GAACTTAGCTAAATTGACT; chemistry not given here)”, the Score_si4 was 0.58. With “s2529 (sense GCACCCGGTTTATCAGTAA; chemistry not given here)” the Score_si4 was 0.17. “s2664 (sense CGTCCATGTTTATCTACAA; chemistry not given here)” gave a Score_si4 of 0.12. “s2665 (sense GCTTCAGGATGTGCCCAAA; chemistry not given here)” showed a Score_si3 of 0.58. For “s2822 (sense TGCTGACTTTTAACCCACA; chemistry not given here)”, the Score_si4 was 1. “s3112 (GGATGAGATTCTAGACTTT; chemistry not given here)” was tested, and the Score_si3 was 1.86. “s3113 (GGCGAGAGGGTATCAAGTA; chemistry not given here)” was tested, and the Score_si4 was 1.79. “s3114 (GAAGAGCAGTCACAGATCA; chemistry not given here)” was tested, and the Score_si2 was 2.05. “s3145 (GACCCTTACCTGGAAGTTT; chemistry not given here)” was tested, and the Score_si2 was 0.19. For “s3146 (GACCATGGATAATAAGAAA; chemistry not given here)”, the Score_si4 was -0.15. In the case of “s3162 (CATTTCGACTGGATCATAT; chemistry not given here)”, the Score_si1 is reported as 1.86. Work on “s3163 (CTATCTTGGGTTTACCGTA; chemistry not given here)” yielded a Score_si2 of 1.54. In the case of “s3625 (CAGTGAAGCTAGAATCTCA; chemistry not given here)”, the Score_si4 is reported as 1.54. In the case of “s3626 (GAATTTGCGATGTACTTAA; chemistry not given here)”, the Score_si2 is reported as 1.98. “s4917 (sense GTGTATGAGTTTAGAGTCA; chemistry not given here)” was tested, and the Score_si2 was 1.15. “s4918 (sense GGCACTTACTATGACAATT; chemistry not given here)” showed a Score_si3 of 1.02. Work on “s5030 (sense GGTATGCGACGGGAAAGTA; chemistry not given here)” yielded a Score_si3 of 1.75. Work on “s5031 (sense CCGTGGACCTGATCATCAA; chemistry not given here)” yielded a Score_si2 of 2.04. “s5032 (sense GGAGCGTATCTGTGAGAAA; chemistry not given here)” was tested, and the Score_si4 was 1.56. For “s5082 (sense CCTCGATAATATAACACGA; chemistry not given here)”, the Score_si4 was 0.67. “s5083 (sense CGTCGTCACTAACAGTCAA; chemistry not given here)” showed a Score_si3 of 1.11. With “s5295 (sense CGAGGTCATTGTGCATGAA; chemistry not given here)” the Score_si4 was 0.77. Substance “s5296 (sense GCTTCACCATCGAATCCAA; chemistry not given here)” has a Score_si3 of 1.01. “s5569 (sense AGGCTGAAGCTAATAAGAA; chemistry not given here)” showed a Score_si3 of 0.16. With “s5570 (sense TGAACAAGATGGTATCAAA; chemistry not given here)” the Score_si4 was -0.08. “s5571 (sense GCAGGACGAGGGTAAAGAA; chemistry not given here)” was tested, and the Score_si2 was 0.56. Substance “s6097 (sense TCAGGACCCTGTACACCCA; chemistry not given here)” has a Score_si4 of 0.9. With “s6098 (sense CCTTTAACGTGGACATGTA; chemistry not given here)” the Score_si1 was 1.88. Work on “s6126 (sense GAATGCTCCTTTACCAGAA; chemistry not given here)” yielded a Score_si2 of 0.75. “s6350 (sense GCCCATATACATTCTGCAA; chemistry not given here) [reference compound]” gave a Score_si4 of -0.73. For “s6670 (sense CAACAGGAGGAAGACTTTA; chemistry not given here)”, the Score_si4 was -0.15. “s6671 (sense CAACGAAAATCTAAATGCA; chemistry not given here)” was tested, and the Score_si2 was 0.2. With “s6672 (sense GACTAATGAACTACTAAAA; chemistry not given here)” the Score_si3 was 0.16. “s7005 (sense AGAAAAATCTCAAGGAAAA; chemistry not given here)” gave a Score_si3 of 1.86. In the case of “s7007 (sense GGATCGGGTTCTAAAGGAA; chemistry not given here)”, the Score_si2 is reported as 1.87. “s7586 (sense CCTACTGTCTGGTAGCGAT; chemistry not given here)” was tested, and the Score_si2 was 1.49. With “s8004 (sense GTGGAGGAATGGTTCAATA; chemistry not given here)” the Score_si3 was 0.87. Work on “s8005 (sense CCATGACTCCTGACTACCA; chemistry not given here)” yielded a Score_si4 of 0.75. “s8261 (sense GGGTGGAGGTGTACTATGA; chemistry not given here)” gave a Score_si3 of 0.99.
